# Assay results from US4810635A, “Specific binding assays employing label analog to reduce sample interferences” (Miles Inc., priority 1986, dated 1989).
# pKd: −log10 of the molar value.
# Assays:
# [1] = test system: riboflavin-binding monoclonal antibody (IgGλ monoclonal anti-flavin antibody) in the serum of a patient with multiple myeloma; settings: cited from earlier work; for binding to the antibody relative to riboflavin: competitive-binding studies with flavin analogs and [14C]-labeled riboflavin
# apoglucose oxidase = apoglucose oxidase (Aspergillus niger, UniProt P13006); assay: hCG ARIS assay: recombination of hCG-FAD conjugate with apoglucose oxidase, with or without FMN; format: biochemical; settings: 10 μM FMN, 5 nM hCG-FAD conjugate, no serum
# Method: In order to study the effect of flavin analogs in low level protein ARIS assays, a series of experiments were performed. In all cases the following manual assay protocol was employed. FAD-conjugate was incubated in 2.0 mL of assay mixture containing 10 mM DHSA, 0.1M glucose, 25 μg/mL horseradish peroxidase, 0.1% bovine serum albumin (BSA) in 0.1 M sodium phosphate at pH 7.0 with or without 5% serum and/or 10 μM FMN. After 30 minutes at 37° C., 100 μL of apoglucose oxidase/antiglucose oxidase (3 μM apoenzyme) in 50% glycerol and 4 μM 4-aminoantipyrene was added to initiate the reaction. Following a 30 minute assay incubation step at 37° C. the absorbance was measured at 520 nm.
# Two controls were performed during this experiment: (1) conjugate, no serum, no FMN (maximum activity) and (2) conjugate, no serum, plus FMN (assess FMN effect on maximum activity).
# Sequence of apoglucose oxidase (P13006 23-605 limits assumed): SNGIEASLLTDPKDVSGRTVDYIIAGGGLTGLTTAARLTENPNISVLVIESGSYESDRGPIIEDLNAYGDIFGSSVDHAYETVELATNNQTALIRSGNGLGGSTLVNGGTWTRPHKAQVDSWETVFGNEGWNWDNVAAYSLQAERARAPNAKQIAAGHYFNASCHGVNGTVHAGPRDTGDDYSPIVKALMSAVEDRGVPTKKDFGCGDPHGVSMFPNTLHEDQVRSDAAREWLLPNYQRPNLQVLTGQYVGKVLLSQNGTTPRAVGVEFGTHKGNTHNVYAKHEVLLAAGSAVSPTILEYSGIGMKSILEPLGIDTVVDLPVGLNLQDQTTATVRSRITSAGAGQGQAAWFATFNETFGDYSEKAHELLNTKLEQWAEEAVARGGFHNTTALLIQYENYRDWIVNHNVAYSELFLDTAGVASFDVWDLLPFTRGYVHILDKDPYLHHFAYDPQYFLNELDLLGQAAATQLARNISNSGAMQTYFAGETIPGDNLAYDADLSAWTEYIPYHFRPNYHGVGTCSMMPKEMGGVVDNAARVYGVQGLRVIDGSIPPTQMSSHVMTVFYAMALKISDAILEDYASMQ
SMILES,binding to the antibody relative to riboflavin [1],inhibition at 10 µM (apoglucose oxidase; read-out: decrease of the maximum activity of the conjugate) [%],activity at 10 µM (apoglucose oxidase; relative to conjugate without FMN (maximum activity)) [%],pKd ([1]; high affinity (reversible) flavin-binding site)
"Cc1cc2nc3c(=O)[nH]c(=O)nc-3n(C[C@H](O)[C@H](O)[C@H](O)COP(=O)(O)OP(=O)(O)OC[C@H]3O[C@@H](n4cnc5c(N)ncnc54)[C@H](O)[C@@H]3O)c2cc1C [FAD, flavin adenine dinucleotide]",bound strongly to the antibody but not as tightly as FMN or riboflavin,–,–,–
"Cc1cc2nc3c(=O)[nH]c(=O)nc-3n(C[C@H](O)[C@H](O)[C@H](O)COP(=O)(O)O)c2cc1C [FMN, flavin mononucleotide]",bound equally well to this antibody as riboflavin,~9,91,–
Cc1cc2nc3c(=O)[nH]c(=O)nc-3n(C[C@H](O)[C@H](O)[C@H](O)CO)c2cc1C [riboflavin],–,–,–,9.22
